# Source: US7745450B2, “Pyrazolo[4,3-d]pyrimidines, processes for their preparation and methods for therapy” (Institute of Experimental Botany, priority 2002, dated 2010)
# Legend:
# B16 = experiment: In vitro cytotoxic activity, Calcein AM; type: cell-based; conditions: Mus musculus, B16, 72 h, three days
# MMK1 protein kinase = MMK1 protein kinase (Vicia faba, UniProt A0AAV1B7B8); experiment: MMK1 protein kinase activity; type: biochemical
# Experimental: Protein extraction and purification of pant CDK by binding to p13^suc1-beads or immunopurification with an antibody specific to the cdc2a-MS protein was carried out as described previously (Bögre et al. 1997, Plant Physiol. 113, 1997, 841-852). The MMK1 protein kinase was purified with a specific antibody from Vicia faba extracts as described by Bögre et al. 1997a, Plant Cell 9, 75-83). Protein kinase activity was measures as described above in Example 20. The quantification of radioactivity incorporated into histone H1 or myelin basic protein was undertaken using phosphoimager (FIG. 2).
# normal human lymphocytes = experiment: Immunosuppressive activity, 3H-thymidine incorporation in concanavalin A activated lymphocytes; type: cell-based; conditions: Lymphocyte, 72 hours, [3H]-TdR, read-out: Human lymphocytes ED50
# Experimental: Human heparinized peripheral blood was obtained from healthy volunteers by cubital vein punction. The blood was diluted in PBS (1:3) and mononuclear cells were separated by centrifugation in Ficoll-Hypaque density gradient (Pharmacia, 1.077 g/ml) at 2200 rpm for 30 minutes. Following centrifugation, lymphocytes were washed in PBS and resuspended in cell culture medium (RMPI 1640, 2 mM glutamine, 100 U/ml penicillin, 100 μg/ml streptomycin, 10% fetal calf serum and sodium bicarbonate).
# The cells were diluted at target density of 1.100.000 cells/ml were added by pipette (180 μl) into 96/well microtiter plates. Four-fold dilutions of the intended test concentration were added at time zero in 20 μl aliquots to the microtiter plate wells. Usually, test compound was evaluated at six 4-fold dilutions. In routine testing, the highest well concentration was 266.7 μM. All drug concentrations were examined in duplicates. All wells with exception of unstimulated controls were activated with 50 μl of concanavalin A (25 μg/ml). Incubations of cells with test compounds lasted for 72 hours at 37° C., in 5% CO2 atmosphere and 100% humidity. At the end of incubation period, the cells were assayed by using the [^3H]-TdR:
# Cell cultures were incubated with 0.5 μCi (20 μl of stock solution […]) per well for 6 hours at 37° C. and 5% CO2. The automated cell harvester was used to lyse cells in water and adsorb the DNA onto glass-fiber filters in the format of microtiter plate. The DNA incorporated [^3H]-TdR was retained on the filter while unincorporated material passes through. The filters were dried at room temperature overnight, sealed into a sample bag with 10-12 ml of scintillant. The amount of [^3H]-TdR present in each filter (in cpm) was determined by scintillation counting in a Betaplate liquid scintillation counter. The effective dose of immunosuppressant (ED) was calculated using the following equation: ED=(CCPMdrug exposed well/mean CCPMcontrol wells)×100%.
# [1] = tested on: CEM (human lymphoblastoid leukemia); experiment: In vitro cytotoxic activity, Calcein AM; type: cell-based; conditions: Homo sapiens, 72 h, three days
# Experimental: We have been using the following cell lines: HELA (human cervical carcinoma), MCF7 (human breast adenocarcinoma), NIH 3T3 (mouse fibroblasts), HOS (human osteogenic sarcoma), HL 60 (human promyelocytic leukemia), G 361 (human malignant melanoma), K562 (human erythroleukemia), CEM (human lymphoblastoid leukemia). Tested drugs were added to the cell cultures in six different concentration and kept at 37° C. and 5% CO2 for three days. All cell lines were grown in DMEM medium (Gibco BRL) supplemented with 10% (v/v) fetal bovine serum and L-glutamine and maintained at 37° C. in a humidified atmosphere with 5% CO2. 10^4 cells were seeded into each well of 96 well plate, allowed to stabilize for at least 2 h and then tested compounds were added at various concentrations ranging from 200 to 0.2 μM in triplicates. Three days after drug addition Calcein AM solution (Molecular Probes) was added and let to enter the cells for 1 hour. Fluorescence of viable cells was quantified employing Fluoroskan Ascent (Microsystems).
# [2] = tested on: human diploid fibroblasts (HCA cells); experiment: Inhibition of senescence, β-galactosidase staining of fibroblasts; type: cell-based; conditions: for SENESCENT CELLS (%) HCA25: HCA cells passage 25, β-galactosidase staining; for SENESCENT CELLS (%) HCA45: HCA cells passage 45, β-galactosidase staining; for SENESCENT CELLS (%) HCA80: HCA cells passage 80, β-galactosidase staining
# Experimental: In this example, human diploid fibroblasts (HCA cells of various passage levels: passage 25—designated HCA25; passage 45—designated HCA45; passage 80—designated HCA80) were stained for β-galactosidase activity. The medium present on cultured cells was removed, the cells were washed twice in […], and fixed in 2-3 ml of fixing solution comprised of a 2% formaldehyde and 0.2% glutaraldehyde in PBS. The cells were incubated at room temperature for 5 minutes, then washed twice with PBS. The cells were then incubated at 37° C. […] In this experiment, senescent cells, but not other cells were stained blue due to the action of β-galactosidase on the substrate (FIG. 9).
# [3] = tested on: PHA-stimulated lymphocytes (PBMC); experiment: Proliferation of PHA-stimulated lymphocytes (PBMC), flow cytometric cell count; type: cell-based, human; conditions: Homo sapiens, Lymphocyte; 96 hours, IL-2
# Experimental: Peripheral blood mononuclear cells (PBMC): Human peripheral blood mononuclear cells were isolated by density gradient (Ficoll-Hypaque) (LSM, ICN Biomedicals Inc.). PBMC were stimulated with 5 μg/ml phytohemaglutinin A (PHA) (Sigma) during 24-48 hours in IMDM supplemented with 10% FCS at 37° C. After washing off the PHA, PBMC were incubated with interleukin-2 (IL-2) (10 U/ml) (Genzyme).
# (§1) Cells were plated at 10000 per well in 200 μl IMDM medium and incubated with 0-50 μM of the novel compounds (Tab 8), by addition of drug directly to the culture medium and incubated at 37° C. for 96 hours (Tab 8). Absolute cell number was determined by addition of a known concentration Fluoresbrite microspheres (FITC) (Polysciences, Inc.). The absolute number of cells/well was calculated as: {(total number of beads added/well)/(number of beads measured)×(number of measured cells in the gate of interest)}. All analyses were performed with a FACScan (BD), using CELLQuest software (Becton Dickinson).
# PHA-stimulated lymphocytes (PBMC) were tested for their cytotoxicity as one of the normal counterparts of the cell lines. Cells were grown for 96 hours in the presence of IL-2 and different concentrations of the novel compounds and cell number was counted on the flow cytometer.
# [4] = tested on: T-lymphocyte leukemia Molt3 cell line; experiment: Cell proliferation of Molt3, flow cytometric cell count; type: cell-based, human; conditions: Homo sapiens, MOLT-3; 96 hours
# Experimental: Cell lines: Human leukemic cell lines were obtained from the American Type Culture Collection (ATCC, Rockville, Md., USA). They were cultured in Iscove's Modified Dulbecco's Medium (IMDM) supplemented with 10% heat inactivated fetal calf serum (FCS), 200 U/ml penicillin, 200 μg/ml streptomycin and 1 μg/ml amphotericin B. Cells were cultured in a 5% CO2-95% air fully humidified incubator. For effects on clonogenic output, 1000 cells/well were plated in duplicate in methylcellulose (0.9%), supplemented with 20% FCS for 14 days.
# as §1
# Response of the myeloid leukemia KG1 and T-lymphocyte leukemia Molt3 cell lines to the cytostatic effect of the novel compounds was determined using the above-mentioned standardized bead suspension that was used to determine the absolute cell number by flow cytometric (FCM) measurement. Cells were grown in the presence of increasing concentration of the novel compounds.
# Chain of MMK1 protein kinase (A0AAV1B7B8 1-394): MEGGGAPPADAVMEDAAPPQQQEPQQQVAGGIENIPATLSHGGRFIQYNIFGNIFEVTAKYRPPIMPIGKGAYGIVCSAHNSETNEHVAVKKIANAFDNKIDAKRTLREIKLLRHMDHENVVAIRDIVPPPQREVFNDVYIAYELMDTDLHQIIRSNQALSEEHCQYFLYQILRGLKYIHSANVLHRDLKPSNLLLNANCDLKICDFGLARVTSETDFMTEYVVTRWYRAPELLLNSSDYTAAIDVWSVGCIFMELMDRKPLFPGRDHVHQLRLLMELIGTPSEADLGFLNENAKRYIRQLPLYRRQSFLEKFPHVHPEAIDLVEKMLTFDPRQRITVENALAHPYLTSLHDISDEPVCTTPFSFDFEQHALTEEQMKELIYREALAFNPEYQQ
SMILES,IC50 (MMK1 protein kinase),IC50 [4],GI50 (B16),EC50 (normal human lymphocytes),GI50 [1],SENESCENT CELLS (%) HCA25 [2],SENESCENT CELLS (%) HCA45 [2],SENESCENT CELLS (%) HCA80 [2],IC50 [3]
Cc1n[nH]c2c(NCc3ccccc3)nc(NCCCO)nc12,5800 nM,,41 µM,28 µM,40 µM,,,,
Clc1ccc(Nc2ncnc3cn[nH]c23)cc1 [H / 4-chloroanilino / H],,,,,,3%,6%,27%,
CC(C)c1n[nH]c2c(NCc3ccccc3)nc(N(CCO)CCO)nc12,1100 nM,,38 µM,16 µM,25 µM,,,,
"CCC(CO)Nc1nc(NCc2ccc(O)c(O)c2)c2ncn(C(C)C)c2n1 (centres unmarked) [Compound 243, 2-(1-ethyl-2-hydroxyethylamino)-6(3,4-dihydroxybenzylamino)-9-isopropylpurine]",,9 ± 1.2 µM,,,,,,,9 ± 6.6 µM
Nc1cc(CNc2ncnc3cn[nH]c23)ccc1Cl [H / 3-amino-4-chlorobenzylamine / H],,,,,,4%,5%,21%,
Cc1n[nH]c2c(NCc3ccccc3)nc(N(CCO)CCO)nc12,8100 nM,,40 µM,25 µM,35 µM,,,,
CC(C)c1n[nH]c2c(NCc3ccccc3)nc(N[C@@H](CO)C(C)C)nc12,,,2.3 µM,6.5 µM,2.2 µM,,,,
CC(C)c1n[nH]c2c(NCc3ccccc3)nc(NCCN)nc12,1200 nM,,42 µM,11.5 µM,26 µM,,,,
Cc1n[nH]c2c(NCc3ccccc3)nc(NCCO)nc12,29300 nM,,47 µM,34 µM,45 µM,,,,
Cc1n[nH]c2c(NCc3ccccc3)nc(NC3CCCCC3N)nc12 (centres unmarked),900 nM,,3.2 µM,1.2 µM,2.3 µM,,,,
CC(C)c1n[nH]c2c(NCc3ccccc3)nc(NCCO)nc12,2300 nM,,37 µM,27 µM,25 µM,,,,
CC(C)c1n[nH]c2c(NCc3ccccc3)nc(NCCCO)nc12,800 nM,,32 µM,21 µM,21 µM,,,,
CC(=O)c1ccccc1CNc1ncnc2cn[nH]c12 [H / 2-acetylbenzylamino / H],,,,,,3%,5%,28%,
"Nc1c(Cl)ccc(CNc2ncnc3cn[nH]c23)c1N [H / 2,3-diamino-4-chlorobenzylamine / H]",,,,,,3%,3%,18%,
CN(Cc1ccc(O)c(O)c1)c1ncnc2cn[nH]c12,,,,,,4%,4%,22%,
Cc1n[nH]c2c(NCc3ccccc3)nc(NCCCN)nc12,1400 nM,,38 µM,12.4 µM,32 µM,,,,
CC(C)c1n[nH]c2c(NCc3ccccc3)nc(NCCCN)nc12,,,28 µM,9.8 µM,24 µM,,,,
Cc1n[nH]c2c(NCc3ccccc3)nc(NCCN)nc12 [2-aminoethylamino / benzylamino / methyl],15000 nM,,41 µM,14.7 µM,35 µM,,,,

# More lines, main results first:
IC50 (MMK1 protein kinase),IC50 [4],SMILES,GI50 (B16),EC50 (normal human lymphocytes),GI50 [1],SENESCENT CELLS (%) HCA25 [2],SENESCENT CELLS (%) HCA45 [2],SENESCENT CELLS (%) HCA80 [2],IC50 [3]
20 nM,,CC(C)c1n[nH]c2c(NCc3ccccc3)nc(NC3CCCCC3N)nc12 (centres unmarked),28 µM,0.8 µM,14 µM,,,,
190 nM,,CC(C)c1n[nH]c2c(Nc3cccc(Cl)c3)nc(N(CCO)CCO)nc12,34 µM,7 µM,21 µM,,,,
30 nM,,CC[C@H](CO)Nc1nc(NCc2ccccc2)c2n[nH]c(C(C)C)c2n1,3.2 µM,4.5 µM,2.4 µM,,,,
600 nM,,Cc1n[nH]c2c(NCc3ccccc3)nc(NC3CCC(N)CC3)nc12 (centres unmarked),2.5 µM,1.5 µM,1.7 µM,,,,
12 nM,,CC(C)c1n[nH]c2c(Nc3cccc(Cl)c3)nc(NC3CCCCC3N)nc12 (centres unmarked),28 µM,0.2 µM,14 µM,,,,
12 nM,,CC(C)c1n[nH]c2c(Nc3cccc(Cl)c3)nc(NC3CCC(N)CC3)nc12 (centres unmarked),1.3 µM,0.5 µM,0.5 µM,4%,5%,35%,
80 nM,,CC(C)c1n[nH]c2c(Nc3cccc(Cl)c3)nc(NCCCN)nc12,18 µM,4.5 µM,15 µM,,,,
20 nM,,CC(C)c1n[nH]c2c(NCc3ccccc3)nc(NC3CCC(N)CC3)nc12 (centres unmarked),2.3 µM,1.1 µM,1.5 µM,,,,
280 nM,,CC(C)c1n[nH]c2c(Nc3cccc(Cl)c3)nc(NCCO)nc12,29 µM,17 µM,18 µM,4%,4%,38%,
200 nM,,CC(C)c1n[nH]c2c(Nc3cccc(Cl)c3)nc(NCCCO)nc12,33 µM,12 µM,15 µM,,,,
250 nM,,CC(C)c1n[nH]c2c(Nc3cccc(Cl)c3)nc(NCCN)nc12,22 µM,6.7 µM,16 µM,,,,
